Laboratory results taken from patent publication US20240376151A1, “STAPLED PEPTIDES AND METHODS THEREOF” (FOG PHARMACEUTICALS, INC., priority 2022, published 2024).
Numbered stars: 1 amine (or outer) side, 2 acyl side, 3 side chain; on linkers, the order of the positions; unused ones are H or OH. Bridge positions count the residues as written; N and C are the ends. Peptide text beside a SMILES is read from it. Phenylene(1,4-NHCOCH2)2 = O=C(C[*:1])Nc1ccc(NC(=O)C[*:2])cc1

Columns and labels:
PD-L1 [1] = molecular target: T1, PD-L1 (Homo sapiens, UniProt Q9NZQ7); details: analytical SEC and TR-FRET experiments
PD-L1 [2] = molecular target: T1, PD-L1; details: TR-FRET
PD-L1 [3] = molecular target: T1, PD-L1; details: SPR
PD-L1:PD-1 binding = PD-L1:PD-1 binding (Homo sapiens, UniProt Q9NZQ7); details: competition ELISA, n=2
beta-catenin [4] = molecular target: T2, beta-catenin (Homo sapiens, UniProt P35222); experiment: KD (μM, SPR)
T2 construct: 10 nM full-length β-catenin (Uniprot ID P35222); 6×His-thrombin-T7-TEV (N); made in house; host or cells: E. coli BL21 (DE3) pLysS

beta-catenin [5] = molecular target: T3, beta-catenin (Homo sapiens, UniProt P35222); experiment: Competition FP, beta-catenin vs beta-catenin-binding domain of TCF4; details: read-out: IC50 (μM, TCF)
T3 construct: 10 nM full-length β-catenin (Uniprot ID P35222); 6×His-thrombin-T7-TEV (N); made in house; host or cells: E. coli BL21 (DE3) pLysS

beta-catenin [6] = molecular target: T4, beta-catenin (Homo sapiens, UniProt P35222); experiment: SPR binding of Helicons to immobilized beta-catenin; details: SPR, beta-catenin; read-out: KD (μM, SPR)
T4 construct: made in house; host or cells: E. coli BL21 (DE3) pLysS
T4 sequence (P35222 134-665): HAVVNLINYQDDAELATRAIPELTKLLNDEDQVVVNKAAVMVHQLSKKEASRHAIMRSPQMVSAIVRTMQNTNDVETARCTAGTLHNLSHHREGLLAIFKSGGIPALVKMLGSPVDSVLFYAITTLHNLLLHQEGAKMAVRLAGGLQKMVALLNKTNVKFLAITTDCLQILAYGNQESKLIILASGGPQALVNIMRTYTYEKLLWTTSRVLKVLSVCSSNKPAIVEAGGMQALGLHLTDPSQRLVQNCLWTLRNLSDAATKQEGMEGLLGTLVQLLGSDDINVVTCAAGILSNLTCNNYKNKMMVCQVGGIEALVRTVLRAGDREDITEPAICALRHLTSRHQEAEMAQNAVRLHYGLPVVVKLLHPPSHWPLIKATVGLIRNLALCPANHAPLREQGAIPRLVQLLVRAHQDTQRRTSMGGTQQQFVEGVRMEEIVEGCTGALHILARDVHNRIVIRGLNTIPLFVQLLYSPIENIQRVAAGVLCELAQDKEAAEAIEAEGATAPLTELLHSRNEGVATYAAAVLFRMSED

β-catenin:MDM4 complex = molecular target: T5, β-catenin:MDM4 complex (Homo sapiens, UniProt O15151+P35222, C17S); experiment: FP analysis of the β-catenin:MDM4 complex; assay type: biochemical; details: direct FP assay
T5 construct: 6×His-yBBr-TEV (N); 6×His-yBBr-3C (N, cleaved yes); made in house; host or cells: E. coli BL21 (DE3) pLysS (beta-catenin); E. coli BL21 (DE3) (MDM4)
T5 sequence (P35222 134-665): T4 sequence (P35222 134-665)
T5 sequence (O15151 14-111 C17S): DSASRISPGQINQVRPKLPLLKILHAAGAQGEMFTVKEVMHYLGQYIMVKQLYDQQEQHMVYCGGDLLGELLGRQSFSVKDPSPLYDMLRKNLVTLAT

β-catenin:MDM2 complex = molecular target: T6, β-catenin:MDM2 complex (Homo sapiens, UniProt P35222+Q00987); experiment: FP analysis of the β-catenin:MDM2 complex; assay type: biochemical; details: read-out: EC50 of cooperative interaction between MDM2 and the Armadillo domain of β-catenin
T6 construct: 6×His-yBBr-TEV (N); 6×His-TEV (N, cleaved yes); made in house; host or cells: E. coli BL21 (DE3) pLysS (beta-catenin); E. coli BL21 (DE3) (MDM2)

MDM4 = molecular target: T7, MDM4 (Homo sapiens, UniProt O15151, C17S); experiment: Direct FP ternary complex formation, fluorescent MDM4 and beta-catenin; assay type: biochemical; details: fluorescent p53-binding domain of MDM4
T7 construct: 6×His-yBBr-3C (N, cleaved yes); made in house; host or cells: E. coli BL21 (DE3)
T7 sequence (O15151 14-111 C17S): T5 sequence (O15151 14-111 C17S)

MDM2 and β-catenin = molecular target: T8, MDM2 and β-catenin (Homo sapiens, UniProt P35222+Q00987); experiment: Direct FP ternary complex formation, fluorescent MDM2 and beta-catenin; assay type: biochemical; details: fluorescent p53-binding domain of MDM2
T8 construct: 6×His-TEV (N, cleaved yes); 6×His-yBBr-TEV (N); made in house; host or cells: E. coli BL21 (DE3) (MDM2); E. coli BL21 (DE3) pLysS (β-catenin)

VHL-ELOBC [7] = molecular target: T9, VHL-ELOBC (Homo sapiens, UniProt P40337); experiment: Competition FP with VHL-binding fluorescent probe HXC78; details: n=3
T9 construct: VHL (Uniprot ID: P40337, residues 54-213) with an N-terminal 6×His-TEV tag; 6×His-TEV (N); made in house; host or cells: E. coli BL21 (DE3)

CDK2 = CDK2 (Homo sapiens, UniProt P24941); experiment: CDK2 kinase activity, luminescence-based assay that detects ADP production; assay type: biochemical
Source text: Among other things, two distinct clusters of Helicons that bound both CDK2 and CDK2 in complex with its partner CyclinE1, but not to CDK1 or CDK1 in complex with its partner CyclinA2 (C51 and C52). […] In some embodiments, one or more (e.g., 1, 2 or 3) or all residues to the N-terminus side of X^4 are absent. In some embodiments, one or more (e.g., 1, 2 or 3) or all residues to the C-terminus side of X^11 are absent.

VHL-ELOBC [8] = molecular target: T9, VHL-ELOBC; experiment: Naive Library Presenter Screening (phage, NGS), VHL-ELOBC; assay type: binding; details: VHL target concentration 1000 nM

For Cc1cc(CN[C@H](CO)C(=O)O)c(OCc2cccc(C#N)c2)cc1OCc1cccc(-c2ccc3c(c2)OCCO3)c1C [BMS-1001], the PD-L1 dimerization (PD-L1 [1]) was “Evidence of PD-L1 dimerization”, the “induction of PD-L1 dimerization in solution” value (PD-L1 [2]) was “induce PD-L1 dimerization” and the “competition with PD-1 for binding to PD-L1” value (PD-L1 [3]) was “compete more potently”. The “inhibition of PD-L1:PD-1 binding” value (PD-L1:PD-1 binding) was “inhibits PD-L1:PD-1 binding”.

CC(=O)N[C@@H](CC(=O)O)C(=O)N1CCC[C@H]1C(=O)N[C@@H](C)C(=O)N[C@H](C(=O)N[C@@H](C)C(=O)N[C@@H](CCCNC(=N)N)C(=O)N[C@H]1CSCC(=O)Nc2ccc(cc2)NC(=O)CSC[C@@H](C(=O)N[C@@H](CCC(=O)O)C(=O)N[C@@H](CC(C)C)C(=O)N[C@H](C(N)=O)C(C)C)NC(=O)[C@H](Cc2c[nH]cn2)NC(=O)[C@H](CC(C)C)NC(=O)[C@H](C)NC(=O)[C@H](C)NC(=O)[C@H](Cc2c[nH]c3ccccc23)NC(=O)[C@H](CCC(=O)O)NC1=O)[C@@H](C)O [FP49251] (Ac-DPATARCEWAALHCELV-NH2; linker 7-14 via Phenylene(1,4-NHCOCH2)2) gave a Kd (beta-catenin [4]) of 0.4 ± 0.05 µM.

CC(=O)N[C@@H](CC(=O)O)C(=O)N1CCC[C@H]1C(=O)N[C@@H](C)C(=O)N[C@H](C(=O)N[C@@H](Cc1c[nH]cn1)C(=O)N[C@@H](C)C(=O)N[C@H]1CSCC(=O)Nc2ccc(cc2)NC(=O)CSC[C@@H](C(=O)N[C@@H](CCC(=O)O)C(=O)N[C@@H](CC(C)C)C(=O)N[C@H](C(N)=O)C(C)C)NC(=O)[C@H](Cc2c[nH]cn2)NC(=O)[C@H](CC(C)C)NC(=O)[C@H](C)NC(=O)[C@H](C)NC(=O)[C@H](Cc2c[nH]c3ccccc23)NC(=O)[C@H](CCC(=O)O)NC1=O)[C@@H](C)O [FP49252] (Ac-DPATHACEWAALHCELV-NH2; linker 7-14 via Phenylene(1,4-NHCOCH2)2) gave a Kd (beta-catenin [4]) of 0.3 ± 0.1 µM.

For CC[C@H](C)[C@H](NC(=O)[C@H](CS)NC(=O)[C@H](CC(=O)O)NC(=O)[C@H](CC(=O)O)NC(=O)[C@H](CCC(N)=O)NC(=O)[C@H](C)NC(=O)[C@@H]1CCCN1C(=O)[C@H](CC(=O)O)NC(C)=O)C(=O)N[C@@H](CC(C)C)C(=O)N[C@@H](C)C(=O)N[C@@H](C)C(=O)N[C@@H](Cc1c[nH]cn1)C(=O)N[C@H](C(=O)N[C@@H](CS)C(=O)N[C@@H](C)C(=O)N[C@@H](CC(C)C)C(=O)N[C@@H](Cc1c[nH]c2ccccc12)C(N)=O)C(C)C [FP49433], the IC50 (beta-catenin [5]) was > 10 µM and the Kd (beta-catenin [6]) was > 10 µM.

With CC[C@H](C)[C@H](NC(=O)[C@H](C)NC(=O)[C@H](CCC(N)=O)NC(=O)[C@H](CCC(N)=O)NC(=O)[C@H](CCC(=O)O)NC(=O)[C@H](CCSC)NC(=O)[C@@H]1CCCN1C(C)=O)C(=O)N[C@H]1CSCC(=O)Nc2ccc(cc2)NC(=O)CSC[C@@H](C(=O)N[C@@H](CC(C)C)C(=O)N[C@@H](C)C(=O)N[C@@H](CC(=O)O)C(=O)N[C@@H](CC(=O)O)C(=O)N[C@@H](Cc2c[nH]c3ccccc23)C(=O)N[C@H](C(N)=O)[C@@H](C)O)NC(=O)[C@H](CCSC)NC(=O)[C@H](Cc2c[nH]c3ccccc23)NC(=O)[C@H](C)NC(=O)[C@H](C)NC(=O)[C@H](CCC(N)=O)NC(=O)[C@H](Cc2ccccc2)NC1=O [Helicon H329] (Ac-PMEQQAICFQAAWMCLADDWT-NH2; linker 8-15 via Phenylene(1,4-NHCOCH2)2) the “promotion of interaction between MDM4 and β-catenin” value (“promotion” for short) (β-catenin:MDM4 complex) was “not between MDM4 and β-catenin” and the EC50 (β-catenin:MDM2 complex) was 10 to 100 nM.

For CC(=O)N1CCC[C@H]1C(=O)N[C@@H](Cc1c[nH]c2ccccc12)C(=O)N[C@@H](CCCCN)C(=O)N[C@@H](Cc1ccc(O)cc1)C(=O)N[C@@H](CCC(=O)O)C(=O)N[C@@H](CCC(N)=O)C(=O)N[C@H](C(=O)N[C@H]1CSCC(=O)Nc2ccc(cc2)NC(=O)CSC[C@@H](C(=O)N[C@@H](CC(C)C)C(=O)N[C@@H](CO)C(=O)N[C@@H](CC(=O)O)C(=O)N[C@@H](CC(=O)O)C(=O)N[C@@H](Cc2c[nH]c3ccccc23)C(=O)N[C@@H](CC(=O)O)C(N)=O)NC(=O)[C@H](CCC(N)=O)NC(=O)[C@H](Cc2c[nH]c3ccccc23)NC(=O)[C@H](C)NC(=O)[C@H](C)NC(=O)[C@H](CCC(N)=O)NC(=O)[C@H](Cc2ccc(O)cc2)NC1=O)C(C)C [Helicon H330], the “ternary complex formation with MDM4” value (MDM4) was “did not occur”.

CC[C@H](C)[C@H](NC(=O)[C@@H]1CSCC(=O)Nc2ccc(cc2)NC(=O)CSC[C@H](NC(=O)[C@H](CC(=O)O)NC(=O)[C@H](CC(N)=O)NC(=O)[C@H](C)NC(=O)[C@H](C)NC(=O)[C@H](CO)NC(=O)[C@@H](NC(=O)[C@@H]2CCCN2C(C)=O)[C@@H](C)CC)C(=O)N[C@@H](Cc2ccccc2)C(=O)N[C@@H](CCCCN)C(=O)N[C@@H](C)C(=O)N[C@@H](C)C(=O)N[C@@H](Cc2c[nH]c3ccccc23)C(=O)N[C@@H](CCC(N)=O)C(=O)N1)C(=O)N[C@H](C(=O)N[C@@H](Cc1c[nH]c2ccccc12)C(=O)N[C@@H](CC(C)C)C(=O)N[C@@H](Cc1c[nH]cn1)C(=O)N[C@@H](CCC(N)=O)C(N)=O)[C@@H](C)CC [Helicon H332] was tested, and the “ternary complex formation with MDM4” value (MDM4) was “did not occur”, the “promotion” value (β-catenin:MDM4 complex) was “not between MDM4 and β-catenin” and the EC50 (β-catenin:MDM2 complex) was 10 to 100 nM. The “ternary complex formation, MDM2 and β-catenin” value (MDM2 and β-catenin) was “could promote ternary complex formation”.

With CC(=O)N1CCC[C@H]1C(=O)N[C@@H](CC(N)=O)C(=O)N[C@@H](CC(C)C)C(=O)N[C@H](C(=O)NCC(=O)N[C@@H](C)C(=O)N[C@@H](CC(=O)O)C(=O)N[C@H]1CSCC(=O)Nc2ccc(cc2)NC(=O)CSC[C@@H](C(=O)N[C@@H](CC(C)C)C(=O)N[C@@H](CCC(N)=O)C(=O)N[C@@H](Cc2ccccc2)C(=O)N[C@@H](CC(C)C)C(=O)N[C@@H](Cc2c[nH]c3ccccc23)C(=O)N[C@@H](CC(=O)O)C(N)=O)NC(=O)[C@H](CCC(N)=O)NC(=O)[C@H](Cc2c[nH]c3ccccc23)NC(=O)[C@H](C)NC(=O)[C@H](C)NC(=O)[C@@H]2CCCN2C(=O)[C@H](Cc2ccccc2)NC1=O)[C@@H](C)O [Helicon H334] the “ternary complex formation with MDM4” value (MDM4) was “did not occur”, the “promotion” value (β-catenin:MDM4 complex) was “not between MDM4 and β-catenin” and the EC50 (β-catenin:MDM2 complex) was 10 to 100 nM. The “ternary complex formation, MDM2 and β-catenin” value (MDM2 and β-catenin) was “could promote ternary complex formation”.

In the case of Cc1ncsc1-c1ccc(CNC(=O)[C@@H]2C[C@@H](O)CN2C(=O)[C@@H](NC(=O)C2(C#N)CC2)C(C)(C)C)cc1 [VH298, (2S,4R)-1-((S)-2-(1-Cyanocyclopropanecarboxamido)-3,3-dimethylbutanoyl)-4-hydroxy-N-(4-(4-methylthiazol-5-yl)benzyl)pyrrolidine-2-carboxamide], the “competition with HXC78 for binding VHL-ELOBC” value (VHL-ELOBC [7]) is reported as “potently competes”.

Ac-WWVCAIAAIECSD-NH2 [FP33215] was tested, and the “inhibition of the kinase activity of CDK2” value (CDK2) was “neither FP19711 nor FP33215 appeared to inhibit”.

For DPAWWYCLDAAYDCDHT, the “interaction data at Target Concentration 1000” value (VHL-ELOBC [8]) was 0.

DPAWYACMDAARVCDRT was tested, and the “interaction data at Target Concentration 1000” value (VHL-ELOBC [8]) was 0.
